Test results published in patent publication US20050282208A1, “Cellular phenotype” (Cytokinetics, Inc., priority 2004, published 2005).

Experiments:
SKOV3 cells [1] = assay: Mitotic spindle length in tubulin marker images of SKOV3 cells; format: cell-based
Description: In accordance with this invention, the length of a bipolar mitotic spindle may be measured as the separation distance between the spindle poles. To make such measurement, mitotic spindles are observed by a suitable technique such as one that employs a marker for a specific component of the spindle. For example, the technique may involve treating cells with a marker for tubulin and then imaging them under conditions that illuminate such marker. This facilitates automated identification of the mitotic spindle and measurement of its length using image analysis algorithms. […]
The data in this table was obtained for SKOV3 cells (ovarian cancer cell line) treated with DMSO (control) and a compound that produces the rice phenotype. […] In the table, “n” is the number of cells that were analyzed to generate a mean length in micrometers as indicated and associated standard deviation. Spindle lengths were measured manually in this example.
Manual measurements were taken from one image each of DMSO, rice compound 4-(3-Bromo-4-hydroxy-5-methoxy-phenyl)-6-methyl-2-oxo-1,2,3,4-tetrahydro-pyrimidine-5-carboxylic acid 1,2,2-trimethyl-propyl ester at 40 uM, and a mitotic kinesin inhibitor at 40 uM using MetaMorph Imaging Software. Lines were drawn between what was manually determined to be the ends of the mitotic spindle. […]

SKOV3 cells [2] = assay: Image analysis of treated SKOV3 cells: mitotic index and interphase phenotype distance from control; format: cell-based; details: for Impact on mitotic index / Impact on interphase features (combined distance from normal interphase phenotype): FIG. 5A, multiple concentrations; for Impact on mitotic index: 40 uM maximum; for Impact on interphase features (combined distance from normal interphase phenotype): 40 uM maximum (Taxol 0.8 uM maximum)
Description: In one specific example, a particular group of cellular features for characterizing the interphase phenotype of a cell could include, for all cells that are not mitotic: • the average size of cell nuclei; • the average elliptical axis ratio for nuclei; • the average kurtosis intensity of cells; • the average pixel intensity for Golgi apparatus in cells; • the average cell area; • the elliptical axis ratio for cells; • the form factor (area divided by perimeter) for cells; • the kurtosis of the intensity of tubulin; • the second moment of a cell; • the average total intensity of tubulin for each cell; • the proportion of branched (i.e. having projections) cells.
In one embodiment, after each cellular feature has been characterized, and similarly for the control group cellular features, a distance in multivariate space may be calculated. This can be the distance from a normal interphase phenotype as presented in the horizontal axis of FIG. 5A (described below). For the purposes of simplicity of discussion, if it is assumed that there are only three cellular features (a, b, c) comprising the interphase phenotype signature, and where the subscript ‘t’ refers to a feature of a treated cell and the subscript ‘c’ refers to a feature of a control cell, then the distance (L1) in multivariate space between the interphase signature of the treated cells and interphase signature of the control cells can be calculated as L1=|at−ac|+|bt−bc|+|ct−cc|, which provides the interphase metric.
FIG. 5A presents data showing that certain compounds producing the rice phenotype have very little effect on phenotypic features of interphase cells. In FIG. 5A, the vertical axis presents mitotic index, which is a measure of a compound's ability to cause mitotic arrest (thereby its ability to have a profound effect on the phenotype of mitotic cells), and the horizontal axis presents a “combined distance” from a normal interphase phenotype. The combined distance takes into account various features that characterize interphase phenotype, including those described above (i.e., the average size of cell nuclei, the average elliptical axis ratio for nuclei, the average kurtosis intensity of cells, etc.) Greater values on the horizontal axis indicate greater deviations from a control phenotype for interphase cells.
FIG. 5B is a profile graph showing that the interphase cells treated with rice compounds track interphase control cells for various interphase phenotypic features. These features include, as shown on the horizontal axis, the relative number of objects (putative cells), the average area occupied by DNA in the objects (presumably nuclei), the average axes ratio of the DNA regions in the objects, the average kurtosis of the Golgi regions, the mean intensity of the Golgi regions, average area encompassed by tubulin in the objects, the average axes ratio of tubulin in the objects, the average kurtosis of the tubulin regions, the average form factor of the tubulin regions, the average moment of the tubulin regions, the average total intensity of tubulin in each object, and the branching properties of the tubulin in the objects. Note that the cells used to generate this graph were treated with markers for Golgi (LC for labeled LC Lectin), DNA (HO for Hoechst stain), and tubulin (DM for labeled DM1-α). As shown, the rice features closely track those of the DMSO treated cells and diverge strongly from the interphase cells of Taxol treated cells.
The data of FIG. 5B were obtained by treating SKOV3 cells with many different compounds and then capturing the interphase characteristics shown in the horizontal axis using image analysis techniques. The concentration of each compound was chosen by determining what concentration of a compound produced a mitotic index between 14 and 17% after cells were treated at multiple concentrations and then imaged to capture Golgi, tubulin, and DNA data for the interphase features shown in FIG. 5B. […]

SKOV3 cells [3] = assay: as above; format: cell-based
DU145 cells = assay: Cell line specificity: mitotic index, number of objects and rice phenotype in DU145 cells; format: cell-based
Method: (§1) But it is apparently immune to all anti-mitotic agents.
(§2) As shown, the discrepancy exists over a wide range of concentrations. The two effects depicted in FIG. 7A are number of objects (a measure of the compound's cell killing strength) and mitotic index (fraction of the cells in a population that are in the mitotic phase).
FIG. 7B compares phenotypes of DU145 cells that were treated with 4-(3-Bromo-4-hydroxy-5-methoxy-phenyl)-6-methyl-2-oxo-1,2,3,4-tetrahydro-pyrimidine-5-carboxylic acid 1,2,2-trimethyl-propyl ester (top panel) to phenotypes of DU145 cells that were treated with a different compound (bottom panel). […] Note that the other compound produces a phenotype bearing some resemblance to the rice phenotype in SKOV3 cells. Specifically, it produces mitotic spindles that are somewhat elongated. […] This was not observed with the other compound.

A549 cells = assay: Cell line specificity: mitotic index, number of objects and rice phenotype in A549 cells; format: cell-based, human; details: wide range of concentrations, FIG. 7A
Description: as §1, §2

60 cell lines = details: NCI panel data; cited from earlier work
[4] = wide range of concentrations, FIG. 7A
[5] = SK0V3 cell line, wide range of concentrations, FIG. 7A

SMILES	Mitotic spindle length compared to control cells (SKOV3 cells [1]; 40 uM for 24 hours, control 0.4% DMSO, FIG. 2A)	Impact on mitotic index (SKOV3 cells [2])	Impact on interphase features (combined distance from normal interphase phenotype) (SKOV3 cells [2])	Organization of nuclear DNA in interphase cells compared to control (SKOV3 cells [3]; 40 uM for 24 hours, GFP-Histone, FIG. 6A)	Induction of the rice phenotype (DU145 cells; tubulin staining, FIG. 7B)	Effect on cell number (number of objects) (DU145 cells; [4])	Effect on mitotic index (DU145 cells; [4])	Effect on cell number (number of objects) (A549 cells)	Effect on mitotic index (A549 cells)	Effect on cell number (number of objects) (SKOV3 cells [3]; [5])	Effect on mitotic index (SKOV3 cells [3]; [5])	Induction of the rice phenotype (SKOV3 cells [3]; SKOV3 cells)	Production of elongated metaphase spindles (SKOV3 cells [1])	Potency differences between cell types (60 cell lines)	Interphase phenotypic features profile compared to control (SKOV3 cells [2]; FIG. 5B, SKOV3 cells, concentrations inducing approximately 15% mitotic arrest)
COc1cc(C2NC(=O)N(C)C(C)=C2C(=O)OC2CCCC2)cc(Br)c1O (centres unmarked) [4-(3-Bromo-4-hydroxy-5-methoxy-phenyl)-1,6-dimethyl-2-oxo-1,2,3,4-tetrahydro-pyrimidine-5-carboxylic acid cyclopentyl ester]	significantly longer than spindles in normal cells	significant impact on mitotic index	minimal impact on interphase features	similarly organized in rice interphase cells as it is in normal interphase cells	–	–	–	–	–	–	–	–	–	–	–
COc1cc(C2NC(=O)NC(C)=C2C(=O)OC(C)C(C)(C)C)cc(Br)c1O (centres unmarked) [4-(3-Bromo-4-hydroxy-5-methoxy-phenyl)-6-methyl-2-oxo-1,2,3,4-tetrahydro-pyrimidine-5-carboxylic acid 1,2,2-trimethyl-propyl ester]	–	significant impact on mitotic index	minimal impact on interphase features	–	produces a rice phenotype	significant affects	significant affects	limited effect	limited effect	significant affects	significant affects	clearly manifest	–	–	–
CC(=O)O[C@H]1C(=O)[C@@]2(C)[C@H]([C@H](OC(=O)c3ccccc3)[C@]3(O)C[C@H](OC(=O)[C@H](O)[C@@H](NC(=O)c4ccccc4)c4ccccc4)C(C)=C1C3(C)C)[C@]1(OC(C)=O)CO[C@@H]1C[C@@H]2O [Taxol, reference compound]	–	–	widely separated from the control interphase phenotype	–	–	–	–	robust response	robust response	–	–	–	do not produce elongated metaphase spindles	over 3 orders of magnitude	vary to a greater degree
